From US20230381321A1, “CAMPTOTHECIN CONJUGATES” (priority 2022, published 2023)
Where two headings read alike, the source gives them in different places.

Assays:
Type in all cases: cell-based
[1] = test system: non-small-cell lung cancer cells (Calu1); assay: In vitro potency (CellTiter-Glo, 96 h) on Calu1; settings: Homo sapiens, Calu-1, 96 h, read-out: Calu1 IC50
Description: (§1) In vitro potency was assessed on multiple cancer cell lines. All cell lines were authenticated by STR profiling at IDEXX Bioresearch and cultured for no more than 2 months after resuscitation. Cells cultured in log-phase growth were seeded for 24 hours in 96-well plates containing […] RPMI 1640 supplemented with 20% FBS. Serial dilutions of antibody-drug conjugates in cell culture media were prepared at 4x working concentrations, and 50 μL of each dilution was added to the 96-well plates. Following addition of test articles, cells were incubated with test articles for 4 days at […]. After 96 hours, growth inhibition was assessed by CellTiterGlo® (Promega, Madison, WI) and luminescence was measured on a plate reader.
(§2) Cell viability was determined by CellTiter-Glo staining after 96h exposure to ADC. ND=Not Determined. In the following tables, “Ex_” refers to a drug linker number. For example, “Ag4-Ex_4a” refers to a conjugate of an Ag4 antibody with drug linker 4a.

[2] = test system: Hodgkin's lymphoma cells (L540cy); assay: In vitro potency (CellTiter-Glo, 96 h) on L540cy; settings: L540cy, 96 h, read-out: L540cy IC50
In short: (§3)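 Luminescent viability signal reports growth inhibition after continuous exposure of cells to serially diluted […]. Cells, grown in RPMI 1640 plus 20% FBS, had been plated in log phase one day before dosing.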

[3] = test system: renal carcinoma cells (786-O); assay: In vitro potency (CellTiter-Glo, 96 h) on 786-O; settings: Homo sapiens, 786-0, 96 h, read-out: 786-O IC50
In short: as §3

melanoma cells (A2058) = assay: In vitro potency (CellTiter-Glo, 96 h) on A2058; settings: Homo sapiens, A2058, 96 h, read-out: A2058 IC50
Description: as §1, §2

[4] = test system: anaplastic large cell lymphoma cells (Karpas299); assay: In vitro potency (CellTiter-Glo, 96 h) on Karpas299; settings: Homo sapiens, KARPAS-299, 96 h, read-out: Karpas299 IC50
In short: as §3

[5] = test system: acute myeloid leukemia cells (MOLM-13); assay: In vitro potency (CellTiter-Glo, 96 h) on MOLM-13; settings: Homo sapiens, MOLM-13, 96 h, read-out: MOLM-13 IC50
In short: as §3

[6] = test system: pancreatic cancer cells (BxPC3); assay: In vitro potency (CellTiter-Glo, 96 h) on BxPC3; settings: Homo sapiens, BXPC-3, 96 h, read-out: BxPC3 IC50
In short: as §3

[7] = test system: breast cancer cells (MDA-MB-231); assay: In vitro potency (CellTiter-Glo, 96 h) on MDA-MB-231; settings: Homo sapiens, MDA-MB-231, 96 h, read-out: MDAMB 231 IC50
In short: as §3

[8] = In vitro potency (CellTiter-Glo, 96 h) on Ls174T; settings: Homo sapiens, LS174T, read-out: Ls174T IC50
In short: as §3

[9] = test system: anaplastic large cell lymphoma cells (DEL); assay: In vitro potency (CellTiter-Glo, 96 h) on DEL; settings: 96 h, read-out: DEL IC50
In short: as §3

[10] = test system: B-lymphocyte cancer cells (SU-DHL4); assay: In vitro potency (CellTiter-Glo, 96 h) on SU-DHL4; settings: Homo sapiens, SU-DHL-4, 96 h, read-out: SU-DHL-4 IC50
In short: as §3

[11] = test system: anaplastic large cell lymphoma cells (DELBVR); assay: In vitro potency (CellTiter-Glo, 96 h) on DELBVR; settings: 96 h, read-out: DELBVR IC50
In short: as §3

[12] = CPT free drugs, CellTiter-Glo after 96 h exposure

Compound | IC50 [1, 12] [nM] | IC50 [2, 12] [nM] | IC50 [3, 12] [nM] | IC50 (melanoma cells (A2058); [12]) [nM] | IC50 [4, 12] [nM] | IC50 [5, 12] [nM] | IC50 [6, 12] [nM] | IC50 [7, 12] [nM] | IC50 [8, 12] [nM] | IC50 [9, 12] [nM] | IC50 [10, 12] [nM] | IC50 [11, 12] [nM] | further results
CC[C@@]1(O)C(=O)OCc2c1cc1n(c2=O)Cc2c-1nc1cc(F)c(C)c(-c3ccc(O)cc3)c1c2CN [Compound 6f] | 294 | 23 | 97 | 17 | 59 | 51 | 46 | 139 | > 1000 | 9 | 19 | 8 | 
CC[C@@]1(O)C(=O)OCc2c1cc1n(c2=O)Cc2c-1nc1cc3c(cc1c2Cn1ccnc1)OCO3 [Compound 7ai] | 81 | 4 | 12 | 3 | 6 | 9 | 17 | 52 | 8 | 1 | 3 | 3 | 
C/C=C(\C)c1c(C)c(F)cc2nc3c(c(CN)c12)Cn1c-3cc2c(c1=O)COC(=O)[C@]2(O)CC [Compound 6a] | 21 | 4 | 6 | 5 | 5 | 4 | 8 | 7 | 12 | 2 | 2 | 3 | 
CCc1c(C)c(F)cc2nc3c(c(CN)c12)Cn1c-3cc2c(c1=O)COC(=O)[C@]2(O)CC [Compound 10, (S)-11-(aminomethyl)-4,10-diethyl-8-fluoro-4-hydroxy-9-methyl-1,12-dihydro-14H-pyrano[3′,4′:6,7]indolizino[1,2-b]quinoline-3,14(4H)-dione] |  |  |  |  |  |  |  |  |  |  |  |  | IC50 [1]: 95 nM; IC50 [2]: 51 nM; IC50 [3]: 54 nM; IC50 (melanoma cells (A2058)): 33 nM; IC50 [4]: 57 nM; IC50 [5]: 149 nM; IC50 [6]: 64 nM; IC50 [7]: 59 nM; IC50 ([8]; 96 h): 33 nM; IC50 [9]: 7 nM; IC50 [10]: 15 nM; IC50 [11]: 15 nM
CC[C@@]1(O)C(=O)OCc2c1cc1n(c2=O)Cc2c-1nc1cc(F)c(C)c(C3=CCOCC3)c1c2CN [Compound 6h] | 155 | 19 | 36 | 20 | 28 | 31 | 100 | 102 | 48 | 6 | 14 | 7 | 
CC[C@@]1(O)C(=O)OCc2c1cc1n(c2=O)Cc2c-1nc1cc(F)c(C)c(C3=CCN(C)CC3)c1c2CN [Compound 6l] | 73 | 20 | 38 | 16 | 25 | 16 | 51 | 177 | 29 | 6 | 18 | 15 | 
CC[C@@]1(O)C(=O)OCc2c1cc1n(c2=O)Cc2c-1nc1cc3c(c(Br)c1c2CN)OCO3 [Compound 5c] |  |  |  |  |  |  |  |  |  |  |  |  | IC50 [1]: 4 nM; IC50 [2]: 0.8 nM; IC50 [3]: 1 nM; IC50 (melanoma cells (A2058)): 5 nM; IC50 [4]: 1 nM; IC50 [5]: 2 nM; IC50 [6]: 8 nM; IC50 [7]: 2 nM; IC50 ([8]; 96 h): 6 nM; IC50 [9]: 0.3 nM; IC50 [10]: 0.5 nM
